Results as given in article PMC11345829, “Discovery of Potent Isoquinolinequinone N-Oxides to Overcome Cancer Multidrug Resistance” (Journal of Medicinal Chemistry, 2024).

How the values were obtained:
[1] = tested on: NCI60 tumor cell line panel; parameters: method as in PMID 31894828; settings: against 53 human tumor cell lines; cited from earlier work
MALME-3M = test: NCI60 five-dose GI50; assay type: cell-based; settings: Homo sapiens
Outline: (§1)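 Plated cells grown 24 h, then compound added at 10 nM, 100 nM, 1 μM, 10 μM and 100 μM for 48 h. Cells fixed, stained with sulforhodamine B, absorbance taken at 515 nm. Percentage growth from Tz, C and Ti readings gave the GI50.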

OVCAR-4 = test: NCI60 five-dose GI50; assay type: cell-based; settings: Homo sapiens
Outline: as §1

NSCLC cell line panel = test: NCI60 five-dose GI50, NSCLC cell line panel; assay type: cell-based; settings: Homo sapiens, read-out: GI50 range NSCLC cell line panel
Source text: The concentration−response curve generated enables the determination of three criteria, GI50 (drug concentration at which 50% of cell growth is inhibited), total growth inhibition (TGI) and LC50 (drug concentration at which 50% of tumor cells are killed) which can be used to compare effectiveness against any compound tested in the screen since its inception.
S2.1 NCI Screening Assay Experimental details
NCI Screening Assay Experimental: Cancer cell growth assays (NCI60 screening) 5,6 One-dose study: Tested compounds were initially solubilised in DMSO, diluted into RPMI 1640 and 5% fetal bovine serum/L-glutamine, and added to 96-well plates containing cell lines previously cultured for 24 h. […] The dye was then resolubilised in Tris buffer, and the colorimetric absorbance was measured (515 nm). Growth inhibition was measured relative to the response generated from proliferating cells cultured under identical conditions for 48 h. […]
Five-dose study: Serial 5 × 10-fold dilution from an initial DMSO stock solution was performed, prior to incubation at each individual concentration (10 nM, 100 nM, 1 μM, 10 μM and 100 μM). Using seven absorbance measurements (time zero (Tz), control growth (C), and test growth in the presence of drug at the five concentration levels (Ti)), the percentage growth was calculated at each of the drug concentrations levels. […]

[2] = tested on: NCI-H460, NCI-H460/R, DLD1 and DLD1-TxR spheroids; test: Spheroid morphology (AnaSP image analysis); assay type: cell-based, human; settings: 48 h; GI50 and 2 × GI50
Procedure: Spheroid formation was conducted in 12-series agarose 3D Petri Dish micromolds (MicroTissues Technology, MicroTissues Inc., Sigma-Aldrich). The agarose micromolds were prepared using 1% agarose in a 0.9% NaCl solution and then placed in 12-well plates and equilibrated with RPMI supplemented with 10% FBS for at least 2 h before cell seeding. Cell suspensions corresponding to 500 cells per spheroid of the NSCLC cell lines (NCI-H460 and NCI-H460/R), and 1000 cells per spheroid of the colorectal cancer cell lines (DLD1 and DLD1-TxR) were seeded in the corresponding micromolds. The choice of cell seeding concentration was based on a previous optimization assay (data not shown), ensuring that at the end of the assay the spheroids would have a size of around 400 μm. A 20 min incubation period was used for cells to settle into the micromolds and additional medium was finally added to the wells. Spheroid formation was monitored with the Leica DMi1 microscope. […] At the end of the treatment, images from at least 8 different spheroids per condition were captured on the Leica Dmi1 microscope, and posteriorly analyzed with the automated open-source software AnaSP.[82] Spheroid parameters, such as equivalent diameter, circularity, and compactness, were calculated.
S3.6 Effect of 25 on spheroids from NSCLC and colorectal cancer (Figure S67) […]
2GI50 concentrations previously determined in a 2D setting. […]

Row | SMILES | GI50 [1] | GI50 (MALME-3M) | GI50 (OVCAR-4) | GI50 (NSCLC cell line panel) | spheroid morphological properties (diameter, compactness, circularity) [2]
1 | COC(=O)c1c2c(c(C)[n+]([O-])c1C)C(=O)C=C(NCc1ccccc1)C2=O [Compound 2] | 0.91 µM | – | – | – | –
2 | COC(=O)c1c2c(c[n+]([O-])c1C)C(=O)C=C(NCc1ccccc1)C2=O [Compound 25] | – | 0.048 µM | 0.069 µM | 0.174 to 0.397 µM | did not display statistical differences in the AnaSP-calculated morphological properties
